Reference: patent publication US20180186769A1, “6-AMINO-5-FLUORO-5-(FLUOROMETHYL)-2,3,4,5-TETRAHYDROPYRIDIN-2-YL-PHENYL-5-(METHOXY-D3)-PYRAZINE-2-CARBOXAMIDES AND FLUORINATED DERIVATIVES THEREOF AS BACE1 INHIBITORS” (H. Lundbeck A/S, priority 2016, published 2018)

Tests used:
[1] = Clearance in microsomes, cyno; assay type: in vitro ADME; conditions: cynomolgus monkey, 1 microM, read-out: CLint, Cyno (L/h/kg) ± SD (converted)
Text: (§1) Deuterated compounds were compared to their non-deuterated parent counterparts to determine the impact of deuteration on clearance results

[2] = Clearance in microsomes, rat; assay type: in vitro ADME; conditions: 1 microM, read-out: CLint, Rat (L/h/kg) ± SD (converted)
Text: as §1

[3] = Clearance in microsomes, dog; assay type: in vitro ADME; conditions: 1 microM, read-out: CLint, Dog (L/h/kg) ± SD (converted)
Text: as §1

[4] = Clearance in hepatocytes, dog; assay type: in vitro ADME; conditions: read-out: CLint, Dog (L/h/kg) ± SD (converted)
Text: as §1

Aβ40 = test: Aβ levels in rat brain and plasma following BACE1 inhibition (Aβ40 ELISA); assay type: in vivo, Sprague Dawley rats; conditions: p.o.
Procedure: Assessment of […] in rat brain and plasma following BACE1 inhibition.
Young adult Male Sprague Dawley rats of approximately 250 g weight were purchased from Charles River and received vehicle (2.5% HP betaCD+1M MeSO4, pH 2.5) or 0-40 mg/kg of test compounds (dissolved in vehicle) by oral gavage (p.o). The compounds are dosed at a volume of 5 ml/kg. Cohorts of 5-10 animals were established for each treatment condition.
Studies were set up as acute dose response treatment studies were samples were taken at T=180 minutes after initial dosing, or as 12 h or 24 h timecourse treatment studies. At the end of the test period, the animals were stunned and decapitated with a guillotine. Trunk-blood was sampled in EDTA coated tubes after decapitation of the animal. The blood was centrifuged at 2200G at 4° C. for 15 minutes and the plasma was collected and frozen at −80° C. The blood was aliquoted for Aβ ELISA and DMPK analysis. Immediately following sacrifice, the brain was extracted and split into 2 halves. The left half was dissected; with the front forebrain taken for Aβ ELISA and the remainder used for DMPK analysis. These samples were also snap frozen on dry ice and stored at −80° C. until use for analysis. The right hemibrains were snap frozen on dry ice and stored at −80° C. for independent confirmatory Aβ ELISA evalution.
The cortex samples were thawed slightly on wet ice before they were homogenized with a small volume dispersing instrument (T10 basic ULTRA-TURRAX®) which was set at speed 5 for approximately 5-7 sec. The tissue was processed in a 10 times volume of the weight, for example 100 mg of tissue was homogenized in […] of Homogenization buffer. Homogenization buffer: 50 ml Milli Q water+[…]+0.2% Diethylamin (DEA)+1 tablet of Complete Protease inhibitor cocktail+[…] 4-(2-aminoethyl) benzenesulfonyl fluoride hydrochloride irreversible serine protease inhibitor (AEBSF).
After homogenization 450 μL aliquots of the samples are collected into a 1.5 ml Eppendorf tube and placed on wet ice, 0.5% NP-40 (50 ul) was added to all samples and then they were incubated on ice for 30 min. After which all samples were sonicated using an Ultrasonic homogenizer with 20 kHz homogeneous sound (SONOPLUS HD2070, Bandelin Electronic) 10 pulse set at 12-13% power to extract all the Aβ species. The samples were then centrifuged (Ole Dich 157 MPRF Micro centrifuge) at 20000G for 20 minutes at 4° C. After centrifugation […] of the supernatant was pipetted into 600 μL microtubes tubes and neutralized with 15 µL of 1M Tris-HCL buffer.
WAKO 294-62501 Human/Rat Abeta amyloid-40 kit was used for all ELISA analyses. 30 μL plasma samples or 30 μL of the cortex supernatants generated as described above were placed in 600 μL microtubes tubes on wet ice. To this 30 μL of 8M Urea (AppliChem A1049, 9025) are added to generate a 2-fold dilution. Both plasma and cortex supernatants are incubated on ice for 30 min. Standard rows were prepared from the standard peptide stock provided in the kit and standard diluent containing 1.6M Urea (200 μL 8M Urea+800 μL of standard diluent) and 0.8M Urea (400 μL 8M Urea+[…] Standard diluent). A serial 2-fold dilution of Aβ40 from 100 pmol/ml to 0 pmol/L was prepared for the assay.
After incubation with urea, all samples were further diluted by addition of 5 times standard diluent from the Kit. This was done by adding 240 μL Standard Diluent to 60 μL sample/urea mixture, which was then mixed well. 100 μL of each diluted sample was pipetted into designated wells of the ELISA plate in duplicates. The plate was then covered and incubated overnight at 4° C. The following day, the ELISA kit was brought to room temperature before use. The incubated plate was washed 5 times with the 20× washing solution diluted in Milli Q water. 100 μL HRP-conjugate was applied to each well, and the plate was covered and incubates at 4° C. for 1 hr. The wash was repeated again for 5 times. […]

CLint scaled at 1 µM [1]: 10 L/h/kg
CLint scaled at 1 µM [2]: 0.9 L/h/kg
CLint scaled at 1 µM [3]: 5 L/h/kg
CLint scaled at 0.1 µM ([4]; 0.1 microM): 34 L/h/kg
CLint scaled at 0.3 µM ([4]; 0.3 microM): 25 L/h/kg
CLint scaled at 1 µM ([4]; 1 microM): 11 L/h/kg
Structure (SMILES): [2H]C([2H])([2H])Oc1cnc(C(=O)Nc2ccc(F)c([C@]3(C)CC[C@@](F)(CF)C(N)=N3)c2)cn1 [Example 1, N-(3-((2S,5S)-6-amino-5-fluoro-5-(fluoromethyl)-2-methyl-2,3,4,5-tetrahydropyridin-2-yl)-4-fluorophenyl)-5-(methoxy-d3)pyrazine-2-carboxamide]
Aβ40 reduction (%) brain (Aβ40; 10 mg/kg, 0.5 h): −0.3%
Aβ40 reduction (%) plasma (Aβ40; 10 mg/kg, 0.5 h): −0.4%
Aβ40 reduction (%) brain (Aβ40; 10 mg/kg, 1 h): 17.2%
Aβ40 reduction (%) plasma (Aβ40; 10 mg/kg, 1 h): 29.5%
Aβ40 reduction (%) brain (Aβ40; 10 mg/kg, 3 h): 38.3%
Aβ40 reduction (%) plasma (Aβ40; 10 mg/kg, 3 h): 21.7%
Aβ40 reduction (%) brain (Aβ40; 10 mg/kg, 6 h): 39.4%
Aβ40 reduction (%) plasma (Aβ40; 10 mg/kg, 6 h): 15.5%
Aβ40 reduction (%) brain (Aβ40; 10 mg/kg, 12 h): 13.7%
Aβ40 reduction (%) plasma (Aβ40; 10 mg/kg, 12 h): 20.7%
Aβ40 reduction (%) brain (Aβ40; 20 mg/kg, 0.5 h): 14.7%
Aβ40 reduction (%) plasma (Aβ40; 20 mg/kg, 0.5 h): 36.5%
Aβ40 reduction (%) brain (Aβ40; 20 mg/kg, 1 h): 29.7%
Aβ40 reduction (%) plasma (Aβ40; 20 mg/kg, 1 h): 41.4%
Aβ40 reduction (%) brain (Aβ40; 20 mg/kg, 3 h): 38.5%
Aβ40 reduction (%) plasma (Aβ40; 20 mg/kg, 3 h): 34.5%
Aβ40 reduction (%) brain (Aβ40; 20 mg/kg, 6 h): 42.6%
Aβ40 reduction (%) plasma (Aβ40; 20 mg/kg, 6 h): 36.9%
Aβ40 reduction (%) brain (Aβ40; 20 mg/kg, 12 h): 34.5%
Aβ40 reduction (%) plasma (Aβ40; 20 mg/kg, 12 h): 41.3%
Aβ40 reduction (%) brain (Aβ40; 40 mg/kg, 0.5 h): 39.8%
Aβ40 reduction (%) plasma (Aβ40; 40 mg/kg, 0.5 h): 43.0%
Aβ40 reduction (%) brain (Aβ40; 40 mg/kg, 1 h): 43.9%
Aβ40 reduction (%) plasma (Aβ40; 40 mg/kg, 1 h): 47.8%
Aβ40 reduction (%) brain (Aβ40; 40 mg/kg, 3 h): 50.6%
Aβ40 reduction (%) plasma (Aβ40; 40 mg/kg, 3 h): 47.1%
Aβ40 reduction (%) brain (Aβ40; 40 mg/kg, 6 h): 59.5%
Aβ40 reduction (%) plasma (Aβ40; 40 mg/kg, 6 h): 49.9%
Aβ40 reduction (%) brain (Aβ40; 40 mg/kg, 12 h): 57.7%
Aβ40 reduction (%) plasma (Aβ40; 40 mg/kg, 12 h): 41.5%
